Our source for the IC50 values is US20220089592A1, “IMIDAZO[1,2-A]PYRIDINYL DERIVATIVES AS IRAK4 INHIBITORS” (priority 2019, published 2022).

The target of this experiment is T1, IRAK4 (Homo sapiens, UniProt Q9NWZ3).
T1 sequence (Q9NWZ3 1-460): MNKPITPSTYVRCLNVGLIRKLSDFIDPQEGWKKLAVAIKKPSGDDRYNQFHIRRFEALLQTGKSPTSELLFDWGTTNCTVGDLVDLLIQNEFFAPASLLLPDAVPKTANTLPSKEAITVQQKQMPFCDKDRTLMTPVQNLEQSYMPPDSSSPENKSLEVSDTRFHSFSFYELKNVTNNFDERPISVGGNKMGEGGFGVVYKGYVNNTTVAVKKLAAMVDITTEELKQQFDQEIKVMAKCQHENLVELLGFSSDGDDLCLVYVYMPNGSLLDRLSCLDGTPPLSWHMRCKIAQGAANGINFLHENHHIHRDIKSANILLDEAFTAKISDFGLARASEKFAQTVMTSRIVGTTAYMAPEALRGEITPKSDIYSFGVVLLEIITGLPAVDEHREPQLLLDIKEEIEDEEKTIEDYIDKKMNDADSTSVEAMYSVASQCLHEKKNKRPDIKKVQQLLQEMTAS
In words: 2-hour 1 mM ATP IRAK4 Biochemical assay (as above, but with 100 pM IRAK4 and 1 mM ATP). As to conditions: IRAK4 MSD BIOCHEMICAL (1 mM ATP) IC50 (μM), 100 pM IRAK4, 2 hours. The procedure, abridged:
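MSD electrochemiluminescence read-out: biotinylated peptide product bound to streptavidin plates, probed with anti-P-Thr rabbit antibody and Sulfo-Tag goat anti-rabbit. Kinase reaction used 1 mM ATP and 100 pM IRAK4 over 2 hours before EDTA quench.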
For the molecule `O=C(Nc1cc(Cl)c2nc(C3CCOCC3)cn2c1)c1cccc(C(F)F)n1` [Example 308, N-(8-chloro-2-(tetrahydro-2H-pyran-4-yl)imidazo[1,2-a]pyridin-6-yl)-6-(difluoromethyl)picolinamide], the IC50 (as a rule, the point on the concentration scale where inhibition reaches its midpoint) is 0.043 µM.
Take `Cc1cccc(C(=O)Nc2cn3cc(C45COC(C)(C4)C5)nc3cc2C(F)F)n1` [Example 392, N-(7-(difluoromethyl)-2-(1-methyl-2-oxabicyclo[2.1.1]hexan-4-yl)imidazo[1,2-a]pyridin-6-yl)-6-methylpicolinamide 2,2,2-trifluoroacetate]: the half-maximal inhibitory concentration (IC50) amounted to 0.008 µM.
As for `CC(C)Oc1nc2nc(C34COC(C)(C3)C4)cn2cc1NC(=O)c1csc(C(F)(F)F)n1` [Example 499, N-(7-isopropoxy-2-(1-methyl-2-oxabicyclo[2.1.1]hexan-4-yl)imidazo[1,2-a]pyrimidin-6-yl)-2-(trifluoromethyl)thiazole-4-carboxamide], it took 0.001 µM to reach half-maximal inhibition (IC50).
`CC(C)Oc1cc2nc(C3CCOCC3)cn2cc1NC(=O)c1cccc2c1OCC2` [Example 379, N-(7-isopropoxy-2-(tetrahydro-2H-pyran-4-yl)imidazo[1,2-a]pyridin-6-yl)-2,3-dihydrobenzofuran-7-carboxamide] yielded an IC50 of 0.002 µM.
In the case of `COc1nc(NC(=O)c2ccn(C(C)C)n2)cn2cc(C3CCOCC3)nc12` [Example 462, 1-isopropyl-N-(8-methoxy-2-(tetrahydro-2H-pyran-4-yl)imidazo[1,2-a]pyrazin-6-yl)-1H-pyrazole-3-carboxamide 2,2,2-trifluoroacetate] it was 0.095 µM; in that of `CC(C)Oc1c(NC(=O)c2ccn(C(F)F)n2)cn2cc(C34COC(C)(C3)C4)nc2c1F` [Example 547, 1-(difluoromethyl)-N-(8-fluoro-7-isopropoxy-2-(1-methyl-2-oxabicyclo[2.1.1]hexan-4-yl)imidazo[1,2-a]pyridin-6-yl)-1H-pyrazole-3-carboxamide], 0.001 µM; in that of `CC(C)Oc1c(NC(=O)c2cccc3ccnn23)cn2cc(C34COC(C)(C3)C4)nc2c1F` [Example 548, N-(8-fluoro-7-isopropoxy-2-(1-methyl-2-oxabicyclo[2.1.1]hexan-4-yl)imidazo[1,2-a]pyridin-6-yl)pyrazolo[1,5-a]pyridine-7-carboxamide 2,2,2-trifluoroacetate], 0.001 µM.
In the case of `COc1ncccc1C(=O)Nc1cn2cc(C34COC(C)(C3)C4)nc2cc1OC(C)C(F)(F)F` (single isomer, unassigned) [Example 319, 2-methoxy-N-(2-(1-methyl-2-oxabicyclo[2.1.1]hexan-4-yl)-7-((1,1,1-trifluoropropan-2-yl)oxy)imidazo[1,2-a]pyridin-6-yl)nicotinamide] it was 0.001 µM.
The same measure for `COc1ncccc1C(=O)Nc1cn2cc(C34COC(C)(C3)C4)nc2cc1OC(C)C(F)(F)F` (racemic) [Example 317, 2-methoxy-N-(2-(1-methyl-2-oxabicyclo[2.1.1]hexan-4-yl)-7-((1,1,1-trifluoropropan-2-yl)oxy)imidazo[1,2-a]pyridin-6-yl)nicotinamide]: 0.001 µM; for `CC1(COc2cc3nc(C4CCOCC4)cn3cc2NC(=O)c2cccc(C(F)F)n2)CCOC1` (centres unmarked) [Example 197, 6-(difluoromethyl)-N-(7-((3-methyltetrahydrofuran-3-yl)methoxy)-2-(tetrahydro-2H-pyran-4-yl)imidazo[1,2-a]pyridin-6-yl)picolinamide]: 0.004 µM; for `CCCOc1nc(NC(=O)c2ccccc2OC)cn2cc(C34COC(C)(C3)C4)nc12` [Example 335, 2-methoxy-N-(2-(1-methyl-2-oxabicyclo[2.1.1]hexan-4-yl)-8-propoxyimidazo[1,2-a]pyrazin-6-yl)benzamide]: 0.011 µM.
`COc1ncccc1C(=O)Nc1cn2cc(C34COC(C)(C3)C4)nc2c(F)c1OC(C)C` [Example 428, N-(8-fluoro-7-isopropoxy-2-(1-methyl-2-oxabicyclo[2.1.1]hexan-4-yl)imidazo[1,2-a]pyridin-6-yl)-2-methoxynicotinamide] yielded an IC50 of 0.01 µM.
In the case of `COc1nc(NC(=O)c2ccn(CC(C)C)n2)cn2cc(C3CCOCC3)nc12` [Example 464, 1-isobutyl-N-(8-methoxy-2-(tetrahydro-2H-pyran-4-yl)imidazo[1,2-a]pyrazin-6-yl)-1H-pyrazole-3-carboxamide] it was 0.205 µM; in that of `COc1ncccc1C(=O)Nc1cn2cc(C34COC(C)(C3)C4)nc2c(OC)n1` [Example 447, 2-methoxy-N-(8-methoxy-2-(1-methyl-2-oxabicyclo[2.1.1]hexan-4-yl)imidazo[1,2-a]pyrazin-6-yl)nicotinamide 2,2,2-trifluoroacetate], 0.015 µM; in that of `COc1ncccc1C(=O)Nc1cn2cc(C34COC(C)(C3)C4)nc2c(F)c1OC1CCCC1` [Example 329], 0.017 µM.
In the case of `CC(C)Oc1nc2nc(C34COC(C)(C3)C4)cn2cc1NC(=O)c1ccn(C(F)F)n1` [Example 498, 1-(difluoromethyl)-N-(7-isopropoxy-2-(1-methyl-2-oxabicyclo[2.1.1]hexan-4-yl)imidazo[1,2-a]pyrimidin-6-yl)-1H-pyrazole-3-carboxamide] it was 0.001 µM; in that of `Cc1nc(C(=O)Nc2cn3cc(C45COC(C)(C4)C5)nc3c(OC3CCC3)n2)co1` [Example 484, N-(8-cyclobutoxy-2-(1-methyl-2-oxabicyclo[2.1.1]hexan-4-yl)imidazo[1,2-a]pyrazin-6-yl)-2-methyloxazole-4-carboxamide], 0.02 µM.
In the case of `CC(C)Oc1nc2nc(C3C4COCC43)cn2cc1NC(=O)c1ccn(CC(F)F)n1` (centres unmarked) [Example 503, N-(2-(3-oxabicyclo[3.1.0]hexan-6-yl)-7-isopropoxyimidazo[1,2-a]pyrimidin-6-yl)-1-(2,2-difluoroethyl)-1H-pyrazole-3-carboxamide] it was 0.002 µM; in that of `COc1nc(NC(=O)c2coc(C(F)F)n2)cn2cc(C34COC(C)(C3)C4)nc12` [Example 439, 2-(difluoromethyl)-N-(8-methoxy-2-(1-methyl-2-oxabicyclo[2.1.1]hexan-4-yl)imidazo[1,2-a]pyrazin-6-yl)oxazole-4-carboxamide], 0.063 µM.
Take `CC12CCC(c3cn4cc(NC(=O)c5coc(C6CC6)n5)nc(OC5CCC5)c4n3)(CO1)C2` (centres unmarked) [Example 341, N-(8-cyclobutoxy-2-(1-methyl-2-oxabicyclo[2.2.1]heptan-4-yl)imidazo[1,2-a]pyrazin-6-yl)-2-cyclopropyloxazole-4-carboxamide]: half-maximal inhibition (IC50) required 0.006 µM.
As to `CC(Oc1cc2nc(C34COC(C)(C3)C4)cn2cc1NC(=O)c1ccn(C)n1)C(F)(F)F` (centres unmarked) [Example 399, 1-methyl-N-(2-(1-methyl-2-oxabicyclo[2.1.1]hexan-4-yl)-7-((1,1,1-trifluoropropan-2-yl)oxy)imidazo[1,2-a]pyridin-6-yl)-1H-pyrazole-3-carboxamide 2,2,2-trifluoracetate], the IC50 worked out at 0.001 µM.
Molecule `COc1nc(NC(=O)c2cccc(C(F)F)n2)cn2cc(C3CCCOC3)nc12` (centres unmarked) [Example 549, 6-(difluoromethyl)-N-(8-methoxy-2-(tetrahydro-2H-pyran-3-yl)imidazo[1,2-a]pyrazin-6-yl)picolinamide] returned an IC50 of 0.005 µM.
For `CC12CC(c3cn4cc(NC(=O)c5cccc(C(F)F)n5)nc(O)c4n3)(CO1)C2` [Example 200, 6-(difluoromethyl)-N-(8-hydroxy-2-(1-methyl-2-oxabicyclo[2.1.1]hexan-4-yl)imidazo[1,2-a]pyrazin-6-yl)picolinamide], 0.06 µM corresponded to half-maximal inhibition (IC50).
`COc1cccc(C(=O)Nc2cn3cc(C4CCOCC4)nc3cc2C(F)F)n1` [Example 389, N-(7-(difluoromethyl)-2-(tetrahydro-2H-pyran-4-yl)imidazo[1,2-a]pyridin-6-yl)-6-methoxypicolinamide 2,2,2-trifluoroacetate] showed an IC50 of 0.016 µM.
The same measure for `CCC(C)Oc1c(NC(=O)c2cccnc2OC)cn2cc(C34COC(C)(C3)C4)nc2c1F` (centres unmarked) [Example 326, N-(7-(sec-butoxy)-8-fluoro-2-(1-methyl-2-oxabicyclo[2.1.1]hexan-4-yl)imidazo[1,2-a]pyridin-6-yl)-2-methoxynicotinamide]: 0.012 µM; for `O=C(Nc1cc(OCC(F)F)c2nc(C3CCOCC3)cn2c1)c1cccc(C(F)F)n1` [Example 289, N-(8-(2,2-difluoroethoxy)-2-(tetrahydro-2H-pyran-4-yl)imidazo[1,2-a]pyridin-6-yl)-6-(difluoromethyl)picolinamide]: 0.006 µM; for `CC(C)Oc1cc2nc(C34CC(F)(C3)C4)cn2cc1NC(=O)c1cccc(C(F)F)n1` [Example 258, 6-(difluoromethyl)-N-(2-(3-fluorobicyclo[1.1.1]pentan-1-yl)-7-isopropoxyimidazo[1,2-a]pyridin-6-yl)picolinamide]: 0.001 µM.
`COc1nc(NC(=O)c2cccc3c2OCC3(F)F)cn2cc(C3CCOCC3)nc12` [Example 454, 3,3-difluoro-N-(8-methoxy-2-(tetrahydro-2H-pyran-4-yl)imidazo[1,2-a]pyrazin-6-yl)-2,3-dihydrobenzofuran-7-carboxamide] returned an IC50 of 0.014 µM.
In the case of `CCOc1cc2nc(C3CCOCC3)cn2cc1NC(=O)c1cccc(C2CCOC2)n1` (centres unmarked) [Example 367, N-(7-ethoxy-2-(tetrahydro-2H-pyran-4-yl)imidazo[1,2-a]pyridin-6-yl)-6-(tetrahydrofuran-3-yl)picolinamide] it was 0.011 µM.
